Values of other authors, collected in patent US7485427B1, “Photocleavable bioreactive agents” (The Trustees of Boston University, priority 1994, dated 2009).

Molecular target: avidin (Gallus gallus, UniProt P02701)
Settings: binding between avidin and biotin

Chain of avidin (P02701 25-152): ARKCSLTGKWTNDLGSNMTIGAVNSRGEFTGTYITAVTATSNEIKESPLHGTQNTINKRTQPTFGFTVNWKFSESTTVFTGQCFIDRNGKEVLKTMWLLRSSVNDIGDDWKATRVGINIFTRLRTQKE

SMILES: O=C(O)CCCC[C@@H]1SC[C@@H]2NC(=O)N[C@@H]21 [biotin]
- association constant (Ka): about 10^15 M^−1
